Measured values from patent US7989471B2, “Macrocyclic inhibitors of hepatitis C virus” (Tibotec Pharmaceuticals Ltd., priority 2005, dated 2011).

How the values were obtained:
[1] = system: HCV replicons (NS3-NS5B regions of HCV type Ib) in Huh-7 luc/neo cells; experiment: HCV replicon assay (Huh-Luc luciferase reporter); format: cell-based; conditions: Hepatitis C virus, Huh-7, 72 h; Huh-Luc replicon cells, three days incubation, luciferase activity; read-out: EC50
Description: The in vitro antiviral activity against HCV of the compounds of formula (I) was tested in a cellular HCV replicon system based on Lohmann et al. (1999) Science 285:110-113, with the further modifications described by Krieger et al. (2001) Journal of Virology 75: 4614-4624, which is further exemplified in the examples section. This model, while not a complete infection model for HCV, is widely accepted as the most robust and efficient model of autonomous HCV RNA replication currently available. […] It will be appreciated that it is important to distinguish between compounds that specifically interfere with HCV functions from those that exert cytotoxic or cytostatic effects in the HCV replicon model, and as a consequence cause a decrease in HCV RNA or linked reporter enzyme concentration. Assays are known in the field for the evaluation of cellular cytotoxicity based for example on the activity of mitochondrial enzymes using fluorogenic redox dyes such as resazurin. Furthermore, cellular counter screens exist for the evaluation of non-selective inhibition of linked reporter gene activity, such as firefly luciferase. Appropriate cell types can be equipped by stable transfection with a luciferase reporter gene whose expression is dependent on a constitutively active gene promoter, and such cells can be used as a counter-screen to eliminate non-selective inhibitors.
The compounds of formula (I) were examined for activity in the inhibition of HCV RNA replication in a cellular assay. […] The cellular assay was based on a bicistronic expression construct, as described by Lohmann et al. (1999) Science vol. 285 pp. 110-113 with modifications described by Krieger et al. (2001) Journal of Virology 75: 4614-4624, in a multi-target screening strategy. In essence, the method was as follows.
The assay utilized the stably transfected cell line Huh-7 luc/neo (hereafter referred to as Huh-Luc). This cell line harbors an RNA encoding a bicistronic expression construct comprising the wild type NS3-NS5B regions of HCV type Ib translated from an Internal Ribosome Entry Site (IRES) from encephalomyocarditis virus (EMCV), preceded by a reporter portion (FfL-luciferase), and a selectable marker portion (neo^R, neomycine phosphotransferase). The construct is bordered by 5′ and 3′ NTRs (non-translated regions) from HCV type Ib. Continued culture of the replicon cells in the presence of G418 (neo^R) is dependent on the replication of the HCV RNA. The stably transfected replicon cells that express HCV RNA, which replicates autonomously and to high levels, encoding inter alia luciferase, are used for screening the antiviral compounds.
The replicon cells were plated in 384 well plates in the presence of the test and control compounds which were added in various concentrations. Following an incubation of three days, HCV replication was measured by assaying luciferase activity (using standard luciferase assay substrates and reagents and a Perkin Elmer ViewLux™ ultraHTS microplate imager). Replicon cells in the control cultures have high luciferase expression in the absence of any inhibitor. The inhibitory activity of the compound on luciferase activity was monitored on the Huh-Luc cells, enabling a dose-response curve for each test compound.

[2] = In vitro metabolic blocking by ritonavir in human liver microsomes; format: in vitro ADME; conditions: 3 μM test compound, human liver microsomes 1 mg/ml, 37° C., % of initial concentration
Description: Compound nr 11 of Table 1 was tested in a metabolic blocking experiment using 3 μM test compound together with 10 μM ritonavir acting as booster.
The test compound and ritonavir were added to human liver microsomes (protein concentration 1 mg/ml) suspended in potassium phosphate buffer (pH=7.4), to get final reaction mixture concentrations of 3 μM test compound and 10 μM ritonavir. In the non-boosted parallel reactions, ritonavir was not added. Boiled human liver microsomes were used for blank experiments. After addition (in a 1:3 ratio) of a cofactor mixture consisting of β-nicotinamide adenine dinucleotide phosphate (β-NADP, 0.5 mg/ml, 653.2 μM), D-Glucose-6-phosphate (2 mg/ml, 7.1 mM), Glucose-6-phosphate dehydrogenase (1.5 U/ml) in 2% NaHCO3, the reaction mixture was incubated at 37° C. for 30 or 120 minutes after which the reaction was stopped by increasing the temperature to 95° C. Test compound concentrations were determined using HPLC-MS.
Values are percentages of the test compound detected after the indicated incubation times as compared to the initial test compound concentration. Each value is the mean of the results of two independent experiments.

| Structure (SMILES) | EC50 [1] | also measured |
| --- | --- | --- |
| COc1ccc2c(O[C@@H]3C[C@H]4C(=O)N[C@]5(C(=O)NS(=O)(=O)C6CC6)C[C@H]5/C=C\CCCCCCC(=O)N4C3)cc(-c3nc(C(C)C)cs3)nc2c1 [Compound 11, N-[[18-[2-[4-(isopropyl)thiazol-2-yl]-7-methoxyquinolin-4-yloxy]-2,15-dioxo-3,16-diazatricyclo[14.3.0.0^4,6]nonadec-7-en-4-yl]carbonyl](cyclopropyl)sulfonamide] | 17 nM | % Detected Compound ([2]; 30′ incubation, No Booster): 28%; % Detected Compound ([2]; 30′ incubation, with 10 μM ritonavir): 79%; % Detected Compound ([2]; 120′ incubation, No Booster): 0%; % Detected Compound ([2]; 120′ incubation, with 10 μM ritonavir): 91% |
| COc1ccc2c(O[C@@H]3C[C@H]4C(=O)N[C@]5(C(=O)O)C[C@H]5/C=C\CCCCCC(=O)N4C3)cc(-c3nc(C(C)C)cs3)nc2c1C [Compound 58, 17-[2-(4-isopropylthiazol-2-yl)-7-methoxy-8-methylquinolin-4-yloxy]-2,14-dioxo-3,15-diazatricyclo[13.3.0.0^4,6]octadec-7-ene-4-carboxylic acid] | 1600 nM | – |
| COc1ccc2c(O[C@@H]3C[C@H]4C(=O)N[C@]5(C(=O)NS(=O)(=O)C6CC6)C[C@H]5/C=C\CCCCCC(=O)N4C3)cc(-c3nc(C(C)C)cs3)nc2c1C [Compound 59, N-[17-[2-(4-isopropylthiazol-2-yl)-7-methoxy-8-methylquinolin-4-yloxy]-2,14-dioxo-3,15-diazatricyclo[13.3.0.0^4,6]octadec-7-ene-4-carbonyl]-(cyclopropyl)sulfonamide] | 3 nM | – |
| COc1ccc2c(O[C@@H]3C[C@H]4C(=O)N[C@]5(C(=O)NS(=O)(=O)C6(C)CC6)C[C@H]5/C=C\CCCCCC(=O)N4C3)cc(-c3nc(C(C)C)cs3)nc2c1C [Compound 60, N-[17-[2-(4-isopropylthiazol-2-yl)-7-methoxy-8-methylquinolin-4-yloxy]-2,14-dioxo-3,15-diazatricyclo[13.3.0.0^4,6]octadec-7-ene-4-carbonyl]-(1-methylcyclopropyl)sulfonamide] | 14 nM | – |
| COc1ccc2c(O[C@@H]3C[C@H]4C(=O)N[C@]5(C(=O)NS(=O)(=O)C6(C)CC6)C[C@H]5/C=C\CCCCCC(=O)N4C3)cc(-c3nc(C(C)C)cs3)nc2c1Cl [Compound 61, N-[17-[8-chloro-2-(4-isopropylthiazol-2-yl)-7-methoxyquinolin-4-yloxy]-2,14-dioxo-3,15-diazatricyclo[13.3.0.0^4,6]octadec-7-ene-4-carbonyl]-(1-methylcyclopropyl)sulfonamide] | 1 nM | – |
| COc1ccc2c(O[C@@H]3C[C@H]4C(=O)N[C@]5(C(=O)NS(=O)(=O)C6CC6)C[C@H]5/C=C\CCCCCC(=O)N4C3)cc(-c3nc(C(C)C)cs3)nc2c1 [Compound 63, N-[17-[2-(4-isopropylthiazol-2-yl)-7-methoxyquinolin-4-yloxy]-2,14-dioxo-3,15-diazatricyclo[13.3.0.0^4,6]octadec-7-ene-4-carbonyl]-(cyclopropyl)sulfonamide] | 24 nM | – |
